Results on 22 compounds are retold here after US20250145561A1, “4-SUBSTITUTED-PHENYL ACETAMIDES AND ARYLUREAS AS AGONISTS FOR THE ORPHAN RECEPTOR GPR88” (RESEARCH TRIANGLE INSTITUTE, priority 2022, published 2025).

Molecules are shown by their SMILES.

This experiment has as its target T1, GPR88 (Homo sapiens, UniProt Q9GZN0).
T1 construct: expressed in transfected cells
As to the kind of experiment: Lance Ultra TR-FRET cAMP assay using stable PPLS-HA-GPR88 CHO cells. The format is cell-based. The following applies: for Emax: CHO; for EC50 / cAMP pEC50: stable PPLS-HA-GPR88 CHO cells; for EC50: value in parentheses beside pEC50; for cAMP pEC50: 300 nM forskolin, mean ± standard error of at least three independent experiments in duplicate. The method, then: The compounds of the present disclosure offer potent agonism to the orphan receptor GPR88. As such, the compounds of the present disclosure provide therapeutic potential for the treatment of striatal associated disorders such as Parkinson's disease, schizophrenia, and alcohol addiction. All compounds were evaluated for the GPR88 agonist activity in the inventors' previously established in vitro GPR88 Lance TR-FRET cAMP assay. See, supra, Jin et al., 2018, Rahman et al., 2020, and Rahman et al., 2021. As will be described, the TR-FRET signal was converted to fmol cAMP by interpolating from the standard cAMP curve. Fmol cAMP was plotted against the log of compound concentration and data were fit to a three-parameter logistic curve to generate maximum response (Emax) and EC50 values.
Lance™ Ultra cAMP assay using stable PPLS-HA-GPR88 CHO cells. All cAMP assays were performed using the inventors' previously published methods. […] ACS Chemical Neuroscience 2016, 7, 1418-1432, which is incorporated by reference herein with regard to such teaching. Stimulation buffer containing 1× Hank's Balanced Salt Solution (HBSS), 5 mM HEPES, 0.1% BSA stabilizer, and 0.5 mM final IBMX was prepared and titrated to pH 7.4 at room temperature. Serial dilutions of the test compounds (5 μL) and 300 nM forskolin (5 μL), both prepared at 4× the desired final concentration in 2% DMSO/stimulation buffer, were added to a 96-well white ½ area microplate (PerkinElmer). A cAMP standard curve was prepared at 4× the desired final concentration in stimulation buffer and 5 μL was added to the assay plate. Stable PPLS-HA-GPR88 CHO cells were lifted with versene and spun at 270 g for 10 minutes. The cell pellet was resuspended in stimulation buffer and 4,000 cells (10 μL) were added to each well except wells containing the cAMP standard curve. After incubating for 30 min at room temperature, Eu-cAMP tracer and uLIGHT-anti-cAMPworking solutions were added per the manufacturer's instructions. After incubation at room temperature for 1 hour, the TR-FRET signal (ex 337 nm) was read on a CLARIOstar multimode plate reader (BMG Biotech, Cary, NC).
Data Analysis. The TR-FRET signal (665 nm) was converted to fmol cAMP by interpolating from the standard cAMP curve. Fmol cAMP was plotted against the log of compound concentration and data were fit to a three-parameter logistic curve to generate EC50 values (Prism, version 6.0, GraphPad Software, Inc., San Diego, CA).

T1 sequence (Q9GZN0 whole entry): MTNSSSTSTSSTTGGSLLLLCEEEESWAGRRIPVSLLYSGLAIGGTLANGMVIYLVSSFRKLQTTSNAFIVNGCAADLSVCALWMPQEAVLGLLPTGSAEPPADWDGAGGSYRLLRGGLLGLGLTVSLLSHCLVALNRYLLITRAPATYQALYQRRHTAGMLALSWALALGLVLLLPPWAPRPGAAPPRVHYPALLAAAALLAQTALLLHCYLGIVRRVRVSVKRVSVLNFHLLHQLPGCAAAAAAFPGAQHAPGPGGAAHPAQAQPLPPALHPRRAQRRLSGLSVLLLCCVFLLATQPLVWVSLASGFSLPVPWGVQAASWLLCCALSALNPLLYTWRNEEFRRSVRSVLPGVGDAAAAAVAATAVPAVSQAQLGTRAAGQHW

One may read the Emax as the maximal effect, on the per cent scale that the assay sets. A word on the EC50: it is the concentration giving half of the maximal effect. Consider `C[C@@H](NC(=O)[C@H](CO)c1ccc(-c2ccc(CC3CC3)cc2)cc1)c1ccccc1` [Compound 33, (2S)-2-[4′-(Cyclopropylmethyl)-[1,1′-biphenyl]-4-yl]-3-hydroxy-N-[(1 R)-1-phenylethyl]propenamide], for which the Emax was 87 ± 5% and the EC50 was 263 nM.

Regarding `C[C@@H](NC(=O)[C@H](CO)c1ccc(-c2ccc(OC3CC3)cc2)cc1)c1ccccc1` [Compound 34, (2S)-2-{4′-cyclopropoxy-[1,1′-biphenyl]-4-yl}-3-hydroxy-N-[(1 R)-1-phenylethyl]propenamide], the Emax was determined as 86% and the EC50 is 245 nM.

For `C[C@@H](NC(=O)[C@H](CO)c1ccc(-c2ccc(OC3CCC3)cc2)cc1)c1ccccc1` [Compound 35, (2S)-2-{4′-Cyclobutoxy-[1,1′-biphenyl]-4-yl}-3-hydroxy-N-[(1 R)-1-phenylethyl]propenamide], the Emax is 90 ± 10% and the EC50 is 224 nM.

As to `CCCC#Cc1ccc([C@@H](CO)C(=O)N[C@H](C)c2ccccc2)cc1` [Compound 36, (2S)-3-Hydroxy-2-[4-(pent-1-yn-1-yl)phenyl]-N-[(1 R)-1-phenylethyl]propenamide], the Emax turned out to be 92 ± 7% and the EC50 was 204 nM.

For `CC(C)C#Cc1ccc([C@@H](CO)C(=O)N[C@H](C)c2ccccc2)cc1` [Compound 37, (2S)-3-Hydroxy-2-[4-(3-methylbut-1-yn-1-yl)phenyl]-N-[(1 R)-1-phenylethyl]propenamide], the Emax was 102 ± 2% and the EC50 is 479 nM.

For the compound `CCCc1ccc(-c2ccc(N(C[C@@H](N)[C@@H](C)CC)C(=O)Nc3ccccc3)cc2)cc1` [Compound 38, 3-[(2S,3S)-2-Amino-3-methylpentyl]-1-phenyl-3-{4′-propyl-[1,1′-biphenyl]-4-yl}urea], the “cAMP pEC50” value is listed as “Inactive”.

On to `CCCc1ccc(-c2ccc(N(C[C@@H](N)[C@@H](C)CC)C(=O)N(C)c3ccccc3)cc2)cc1` [Compound 39, 3-[(2S,3S)-2-Amino-3-methylpentyl]-1-methyl-1-phenyl-3-{4′-propyl-[1,1′-biphenyl]-4-yi}urea], for which the maximal effect (Emax) turned out to be 97 ± 12% and the EC50 was 2820 nM.

In the case of `CCCc1ccc(-c2ccc(N(C[C@@H](N)[C@@H](C)CC)C(=O)NCc3ccccc3)cc2)cc1` [Compound 40, 3-[(2S,3S)-2-Amino-3-methylpentyl]-1-benzyl-3-{4′-propyl-[1,1′-biphenyl]-4-yl}urea], the Emax amounted to 97 ± 4% and the EC50 is 2000 nM.

With `CCCc1ccc(-c2ccc(N(C[C@@H](N)[C@@H](C)CC)C(=O)N[C@H](C)c3ccccc3)cc2)cc1` [Compound 41, 3-[(2S,3S)-2-Amino-3-methylpentyl]-1-[(1 R)-1-phenylethyl]-3-{4′-propyl-[1,1′-biphenyl]-4-yl}urea], the “cAMP pEC50” value is recorded as “Inactive”.

On to `CCCc1ccc(-c2ccc(N(C[C@@H](N)[C@@H](C)CC)C(=O)N[C@@H](C)c3ccccc3)cc2)cc1` [Compound 42, 3-[(2S,3S)-2-Amino-3-methylpentyl]-1-[(1 S)-1-phenylethyl]-3-{4′-propyl-[1,1′-biphenyl]-4-yl}urea], for which the Emax was determined as 106 ± 10% and the EC50 is 1020 nM.

On to `CCCCCCc1ccc(N(C[C@@H](N)[C@@H](C)CC)C(=O)N[C@@H](C)c2ccccc2)cc1` [Compound 43, 3-[(2S,3S)-2-Amino-3-methylpentyl]-3-(4-hexylphenyl)-1-[(1 S)-1-phenylethyl]urea], for which the Emax stood at 108 ± 4% and the concentration giving a half-maximal response (EC50) was 1380 nM.

With `CCCc1ccc(-c2ccc(N(C[C@@H](N)[C@@H](C)CC)C(=O)N[C@@H]3C[C@H]3c3ccccc3)cc2)cc1` [Compound 44, 1-[(2S,3S)-2-Amino-3-methylpentyl]-3-[(1 R,2S)-2-phenylcyclopropyl]-1-(4′-propyl-[1,1′-biphenyl]-4-yl}urea], the “cAMP pEC50” value was “Inactive”.

As to `CCCc1ccc(-c2ccc(N(C[C@@H](N)[C@@H](C)CC)C(=O)N[C@H]3C[C@@H]3c3ccccc3)cc2)cc1` [Compound 45, 1-[(2S,3S)-2-Amino-3-methylpentyl]-3-[(1 S,2R)-2-phenylcyclopropyl]-1-(4′-propyl-[1,1′-biphenyl]-4-yl}urea], the Emax was 110 ± 5% and the EC50 is 2290 nM.

On to `CCCc1ccc(-c2ccc(N(C[C@@H](N)[C@@H](C)CC)C(=O)NC3(c4ccccc4)CC3)cc2)cc1` [Compound 46, 1-[(2S,3S)-2-Amino-3-methylpentyl]-3-(1-phenylcyclopropyl)-1-{4′-propyl-[1,1′-biphenyl]-4-yl}urea], for which the Emax is 91 ± 4% and the EC50 was 1860 nM.

Take `CCCc1ccc(-c2ccc(N(C[C@@H](N)[C@@H](C)CC)C(=O)N[C@@H](CC)c3ccccc3)cc2)cc1` [Compound 47, 3-[(2S,3S)-2-Amino-3-methylpentyl]-1-[(1 S)-1-phenylpropyl]-3-{4′-propyl-[1,1′-biphenyl]-4-yl}urea]: the Emax was 103 ± 4% and the EC50 is 2000 nM.

Regarding `CCCc1ccc(-c2ccc(N(C[C@@H](N)[C@@H](C)CC)C(=O)N[C@@H](COC)c3ccccc3)cc2)cc1` [Compound 48, 3-[(2S,3S)-2-Amino-3-methylpentyl]-1-[(1 R)-2-methoxy-1-phenylethyl]-3-{4′-propyl-[1,1′-biphenyl]-4-yl}urea], the Emax is 110 ± 5% and the EC50 was 1550 nM.

On to `CCCc1ccc(-c2ccc(N(C[C@@H](N)[C@@H](C)CC)C(=O)N[C@@H](C)c3ccco3)cc2)cc1` [Compound 49, 1-[(2S,3S)-2-Amino-3-methylpentyl]-3-[(1 S)-1-(furan-2-yl)ethyl]-1-{4′-propyl-[1,1′-biphenyl]-4-yl}urea], for which the Emax was 115 ± 5% and the EC50 is 2570 nM.

As to `CCCc1ccc(-c2ccc(N(C[C@@H](N)CC(C)C)C(=O)N[C@@H](C)c3ccccc3)cc2)cc1` [Compound 50, 3-[(2S)-2-Amino-4-methylpentyl]-1-[(1 S)-1-phenylethyl]-3-{4′-propyl-[1,1′-biphenyl]-4-yl}urea], the Emax came to 112 ± 8% and the EC50 is 1200 nM.

As to `CCCc1ccc(-c2ccc(N(C[C@H](N)CC(C)C)C(=O)N[C@@H](C)c3ccccc3)cc2)cc1` [Compound 51, 3-[(2R)-2-Amino-4-methylpentyl]-1-[(1 S)-1-phenylethyl]-3-{4′-propyl-[1,1′-biphenyl]-4-yl}urea], the Emax is 129 ± 4% and the EC50 is 1410 nM.

In the case of `CCCc1ccc(-c2ccc(N(C[C@H](C)N)C(=O)N[C@@H](C)c3ccccc3)cc2)cc1` [Compound 52, 3-[(2S)-2-Aminopropyl]-1-[(1 S)-1-phenylethyl]-3-{4′-propyl-[1,1′-biphenyl]-4-yl}urea], the Emax is 107 ± 3% and the EC50 is 1290 nM.

Regarding `CCCc1ccc(-c2ccc(N(C[C@@H]3CCCN3)C(=O)N[C@@H](C)c3ccccc3)cc2)cc1` [Compound 53, 1-[(1 S)-1-Phenylethyl]-3-{4′-propyl-[1,1′-biphenyl]-4-yl}-3-{[(2S)-pyrrolidin-2-yl]methyl}urea], the Emax is 106 ± 3% and the EC50 is 1740 nM.

On to `CCCc1ccc(-c2ccc(N(C[C@@H](N)[C@@H](C)OC)C(=O)N[C@@H](C)c3ccccc3)cc2)cc1` [Compound 54, 3-[(2R,3R)-2-Amino-3-methoxybutyl]-1-[(1 S)-1-phenylethyl]-3-{4′-propyl-[1,1′-biphenyl]-4-yl}urea], for which the Emax was found to be 106 ± 3% and the EC50 is 324 nM.
